The values that follow come from a melting point compilation (Tetko et al.; mined from patent text by program, amines drawn as free bases though some values may be those of a salt).

One may read the melting point as the temperature, or range, at which the solid turns liquid.

The compound `CC(C)(C)OC(=O)c1nc(-c2cccc3ccccc23)[nH]c1-c1ccncc1` came in with a melting point of 184 to 190 °C.

As to `OC[C@@H]1CCCN1c1nc2ccccc2s1`, the melting point came to 110 °C.

Compound `CC(C)(C)OC(=O)NCCCCC(=O)NCCC(=O)OCc1ccccc1` gave a melting point of 69 to 70 °C.

For the compound `Nc1nc(-c2ccnc(-c3ccc(C(=O)NC4CCOCC4)cc3)c2)c(-c2ccccn2)s1`, the melting point is 268 °C.

Take `CON=C1CCC(C)(C)c2cc(C)c(-c3cc(C=C4SC(=O)NC4=O)ccc3Cl)cc21`: the melting point lay in the range of 252 to 254 °C.

Regarding `CCS(=O)(=O)Nc1ccc(F)c(N)c1`, the melting point was in the range of 106 to 108 °C.

Take `Clc1nc(Cl)nc(C2CC2)n1`: the melting point is 106 to 107 °C.

`Cc1ccc(CN(C)CCOc2ccc(NC(=O)c3cccc4c(=O)c5ccccc5[nH]c34)cc2)cc1` yielded a melting point of 168 °C.

Take `Cc1nc2c(N)nc3cccnc3c2n1CC(C)C`: the melting point was in the range of 228 to 230 °C.

`O=c1[nH]nc(-c2ccc(Cl)cc2)n1Cc1ccccc1` yielded a melting point of 208 to 210 °C.

In the case of `CCOc1cc2c(Nc3cc(OC)c(Cl)cc3Cl)c(C#N)cnc2cc1C#CCCN1CCN(C)CC1`, the melting point is 158 to 160 °C.

Consider `Cc1cc(C)cc(Sc2c(C(C)C)c(=O)[nH]c(=O)n2CC2=CC(CO)C(CO)C2)c1` (stereo not given), for which the melting point lay in the range of 136 to 137 °C.

Take `COc1ccc(CN2C(=O)CC2C(=O)O)c(OC)c1` (stereo not given): the melting point lay within 124 to 125 °C.

Compound `CN(C(=O)C(C)(C)NC(=O)OCc1ccccc1)c1ccc([N+](=O)[O-])cc1C(=O)c1ccccc1F` showed a melting point of 168 to 169 °C.

On to `CC1(C)OC(C(F)(F)F)Nc2ccc(-c3cc(F)cc(C#N)c3)cc21` (stereo not given), for which the melting point was 102 to 103 °C.

For the compound `COc1cc(N)c(Cl)cc1C(=O)NCC1CCN(CCCCCC(=O)c2ccc(F)cc2F)CC1`, the melting point fell in the range of 115 to 117 °C.

For `COc1ccc(N2CCOCC2)c2sc(NC(=O)N(C)C3CCCC3)nc12`, the melting point is 110 to 125 °C.

In turn, `CC1(C)CC(Nc2nc(NC3CC(C)(C)NC(C)(C)C3)nc(N(C3CC(C)(C)NC(C)(C)C3)C3CC(C)(C)NC(C)(C)C3)n2)CC(C)(C)N1` showed a melting point of 235 to 243 °C.

`COc1ccc(C=CC(=O)c2ccc(O)cc2)cc1OC` gave a melting point of 193 to 198 °C.

In the case of `O=S1(=O)c2cccc3cccc(c23)N1CC(O)CN1CCN(c2ccc(F)cc2)CC1` (stereo not given), the melting point is 130 °C.

For `N#CCOc1ccc(C(=O)c2ccccc2)c(Cl)c1Cl`, the melting point was 110 to 112 °C.

On to `COC(=O)c1cccc2nc(N3CCOCC3)n(Cc3ccc(-c4ccccc4-c4nnn[nH]4)cc3)c12`, for which the melting point was in the range of 163 to 167 °C.

For `Cc1n[nH]c2cc(-c3nn(C(C)c4oc5ccc(F)cc5c(=O)c4-c4ccccc4)c4ncnc(N)c34)ccc12` (stereo not given), the melting point fell in the range of 253 to 255 °C.

Turning to `C[C@H]1CCCC(C)(C)[C@@H]1C(=O)c1c(F)c(F)c(F)c(F)c1F`, the melting point was in the range of 35.2 to 38 °C.

With `COc1cc(-c2nc(-n3nccn3)c3c(C)c(C#N)sc3n2)cc(OC)c1OC`, the melting point was 208 to 210 °C.

In the case of `Cc1ccc(OCc2ccccc2)cc1NCc1ccccc1`, the melting point was 66 to 67 °C.

`O=C(CN1C(=O)c2ccccc2C1=O)Nc1cccc(OC(F)(F)F)c1` registered a melting point of 170 °C.

`CCOP(=O)(O)Cc1ccc(NC(=O)CCc2cnoc2-c2ccccc2)cc1` came in with a melting point of 80 to 82 °C.

With `COc1cc(CCC(=O)CC(=O)c2ccc(F)cc2)ccc1O`, the melting point fell in the range of 56 to 57 °C.

Take `CCOC(=O)c1c[nH]nc1-c1cccs1`: the melting point is 123 to 124 °C.

Turning to `COc1ccccc1C=C1NC(=O)N(C)C1=O`, the melting point was in the range of 189 to 190 °C.

`CC=COc1cc(N)c(Cl)cc1C(=O)O` yielded a melting point of 136 to 137 °C.

As to `COC(=O)c1ccc(Cl)cc1SCCC(=O)O`, the melting point was in the range of 133 to 136 °C.

As to `O=C(NCCO)c1cccc(-c2ccc3c(c2)N(Cc2cccc(Cl)c2Cl)CC3)c1`, the melting point was in the range of 158 to 159 °C.

`CC1(C)C=C(N2Cc3ccccc3C2=O)c2cc(S(=O)(=O)C(F)(F)C(F)(F)C(F)(F)F)ccc2O1` came in with a melting point of 164 to 166 °C.

The compound `N#Cc1ccc(C2NC(=O)NC2=O)c(N2CCCC2)c1` (stereo not given) yielded a melting point of 154 °C.

Take `O=c1[nH]c2ncc(-c3ccc(-c4nc[nH]n4)cc3)nc2n1CCC1CCOCC1`: the melting point is 263 to 266 °C.

`COc1ccc(CN(C)CC=Cc2ccc(NC(=O)c3cccc4c(=O)c5cccc(OC)c5[nH]c34)cc2)cc1OC` had a melting point of 200 °C.

The compound `CC(C)(C)OC(=O)[C@@H]1CCC(=O)N1C(=O)OC(C)(C)C` displayed a melting point of 53 to 55 °C.

In turn, `CN1C(=O)CNC(c2cccc(Cl)c2)c2cc(C(O)(c3ccc(Cl)cc3)c3cncn3C)ccc21` (stereo not given) had a melting point of 208 °C.

Consider `COc1ccc(-c2ccc(C(=O)Nc3ccc4cc(CN5CCCCCC5)cnc4c3C)cc2F)cc1`, for which the melting point is 160 to 161 °C.

For the compound `CC(C)(C)CC(C)(C)c1cc(Cl)c(O)c(-n2nc3ccc(C(F)(F)F)cc3n2)c1`, the melting point was in the range of 72 to 81 °C.

In turn, `c1ccc(N(c2ccccc2)c2ccsc2)cc1` returned a melting point of 79 to 82 °C.

Regarding `O=C(CCc1cccc([N+](=O)[O-])c1)c1c(O)c2cccnc2n(-c2ccccc2)c1=O`, the melting point fell in the range of 164 to 166 °C.

For `C[Si](C)(C)NC(=O)c1ccccc1`, the melting point lay within 111 to 115 °C.

Compound `O=[N+]([O-])c1cccc(-c2csc(NS(=O)(=O)Cc3ccccc3)n2)c1` came in with a melting point of 219 to 221 °C.

In turn, `CCCCC(O)c1cn(C(c2ccccc2)(c2ccccc2)c2ccccc2)cn1` (stereo not given) displayed a melting point of 119 to 120 °C.

Regarding `CCOCCOC(=O)C1=C(C)NC(C#N)=C(C(=O)OCC)C1c1cccc([N+](=O)[O-])c1` (stereo not given), the melting point was 89 to 91 °C.

Compound `CNS(=O)(=O)c1csc(C(=O)OC)c1` showed a melting point of 142 °C.

In the case of `Cc1c(N2C(=O)[C@H]3[C@@H](O)CCN3C2=O)ccc(C#N)c1Cl`, the melting point was 237 to 238 °C.

Compound `Cn1ccnc1COc1nn2c(-c3ccccc3F)nnc2cc1C1CCC1` came in with a melting point of 173 °C.

In turn, `Cc1ccc(S)c(C(=O)O)c1` gave a melting point of 56 to 58 °C.

As to `NC(=O)c1c(-c2ccc(F)cc2)cc2c3c1ccn3C(=O)CNC2`, the melting point was 287 to 289 °C.

`COc1ccc(C2CNC(=O)C2)cc1OCC(CN1CCN(c2ccccc2)CC1)OC(C)=O` (stereo not given) showed a melting point of 128 to 133 °C.

The compound `O=C(c1ccccc1CN1CC=CCC1)N1CCN2C(=O)OC(c3ccccc3)(c3ccccc3)C2C1` (stereo not given) came in with a melting point of 155 to 157 °C.

Turning to `COc1ccc(C=CC(=O)NNC(=O)CCc2cc(C(C)(C)C)c(O)c(C(C)(C)C)c2)cc1`, the melting point lay within 252 to 254 °C.

Consider `Cc1cc(Cl)cc(Cl)c1S(=O)(=O)Nc1nc(CC(=O)N2CCOCC2)c(C)s1`, for which the melting point lay in the range of 186 to 187 °C.

In turn, `CC(=O)N1CCC(c2nn(-c3ccc(C(F)(F)F)cc3)c3ccccc23)CC1` came in with a melting point of 148 to 150 °C.

In turn, `COc1ccc(NC(C)=C2C(=O)OC(=O)C(C(C)=O)=C2O)cc1` returned a melting point of 212 to 214 °C.

Consider `CS(=O)(=O)Nc1ccccc1OC/C=C/CN1CCC(OC(c2ccccc2)c2cccs2)CC1` (stereo not given), for which the melting point lay within 114 to 117 °C.

Regarding `CC(=O)Oc1cccc(C(=O)O)c1C`, the melting point is 147 to 148 °C.

The compound `CCN(c1ccc(N2CCN(c3ccc(OC)cc3)CC2)cc1)c1nnc(C)s1` had a melting point of 187 °C.

`Cc1ccc(C(=O)Nc2ccc(CN(C)C)c(C(F)(F)F)c2)cc1-c1ccc2cnncc2c1` had a melting point of 156 to 157 °C.

In the case of `O=C1COc2cc(C(=O)N3CCOCC3)ccc2N1`, the melting point was in the range of 186 to 188 °C.

Compound `Cc1c(Br)nc(Br)c(=O)n1C` registered a melting point of 119 to 120 °C.

`COc1ccc(C2(C#Cc3ccc(C#N)s3)CCC(=O)CC2)cc1OC1CCCC1` returned a melting point of 106 to 107 °C.

For the compound `CCOP(=O)(/C=C/c1cn(-c2ccccc2)nc1OCc1ccc(OCc2nc(-c3ccc(C(=O)O)cc3)oc2C)c(OC)c1)OCC`, the melting point is 194 to 195 °C.

For `O=C(Nc1cc(C(F)(F)F)ccc1N1CCOCC1)c1ccncc1`, the melting point lay in the range of 172 to 173 °C.

The compound `COC(COC(=O)C1=C(C)NC2=C(C(=O)CNC2)C1c1cccc(Cl)c1)c1ccccc1` (stereo not given) came in with a melting point of 165 to 167 °C.

`Oc1cc2c(cc1CCCOc1ccccc1)OC(CCc1ccccc1)C2` (stereo not given) showed a melting point of 65 to 70 °C.

The compound `Cn1c(Cc2cccc(C(F)(F)F)c2)nc2c(-c3cccc(C(=O)O)c3)cccc21` displayed a melting point of 175 to 177 °C.

`COC(=O)c1ccc(-n2cc(-c3ccc4c(c3)C(C)(C)CCC4(C)C)cn2)cc1` had a melting point of 229 to 232 °C.

With `OCCCCOc1ccc2cc(Nc3ccc(O)cc3)ccc2c1`, the melting point was in the range of 132 to 135 °C.

In turn, `CCSc1ccc(-c2cccnc2)c2c1C(=O)CC(C)C2` (stereo not given) had a melting point of 140 to 142 °C.

`Cc1cc(C(N)=O)ncc1C(c1c(F)ccc(F)c1F)S(=O)(=O)CC1CC(F)(F)C1` (stereo not given) showed a melting point of 205 to 207 °C.

`OC(CNC(c1ccccc1)C(O)c1ccccc1)CNC(c1ccccc1)C(O)c1ccccc1` (stereo not given) registered a melting point of 155 to 175 °C.

On to `COc1cc(C)nc2c(O)cccc12`, for which the melting point lay within 110 to 112 °C.

Consider `O=C(O)C[C@]1(O)C[C@H](CCCCCCc2ccc(C(F)(F)F)cc2C(F)(F)F)OC1=O` (relative stereo), for which the melting point fell in the range of 70 to 73 °C.

As to `CCOC(=O)c1cc(C)cc(-c2ccc(NC(=O)OCc3ccccc3)cc2)n1`, the melting point lay within 184 to 185 °C.

On to `CC(C)c1cccc(C(C)C)c1NC(=O)NCC1(SCc2ccccc2)CCCCC1`, for which the melting point was determined as 156 °C.

For `CCOC(=O)c1cnc(OCC)c2c(C)n[nH]c12`, the melting point came out at 200 °C.

Take `CN1CCC(N(C)S(=O)(=O)c2ccc(Nc3nccc(Nc4ccc(F)c(F)c4)n3)cc2)CC1`: the melting point is 181 to 183 °C.

`C=C1CCC2C3CC(=O)c4cc(OC(C)=O)ccc4C3CCC12C` (stereo not given) gave a melting point of 91 to 94 °C.

In the case of `c1ccc(C(OC2CCN(CCCNc3ccc4ncnn4n3)CC2)c2ccccc2)cc1`, the melting point was 136 to 138 °C.

In turn, `C=CC(CCc1ccccc1)NC(=O)c1ccccc1` (stereo not given) yielded a melting point of 131 °C.
